Target: Bromodomain testis-specific protein (Homo sapiens, UniProt Q58F21)
Experiment: Displacement of [Lys(5,8,12,16)Ac]H4(1 to 21)-biotin from BRDT-BD1 (unknown origin) by TR-FRET assay

**Q.** How did the IC50 turn out when `Cn1cc(-c2ccc3nc(C4CCOCC4)[nH]c3c2Oc2ccccc2)ccc1=O` was run?
**A.** 22 nM

Reference: ChEMBL document CHEMBL6071147, “A novel 7-phenoxy-benzimidazole derivative as a potent and orally available BRD4 inhibitor for the treatment of melanoma” (Bioorg Med Chem, 2024)
